Legend:
Assay type in all cases: in vivo
[1] = system: potato leafhopper (Empoasca fabae (Harris)); test: Test D: control of potato leafhopper through contact and/or systemic means; conditions: 144 h
Experimental: (§1) Formulation and Spray Methodology for Tests A-H
(§2) Test compounds were formulated using a solution containing 10% acetone, 90% water and 300 ppm Activator 90® non-ionic surfactant (Loveland Products, Loveland, Colo., USA). The formulated compounds were applied in 1 mL of liquid through an atomizer nozzle positioned 1.27 cm (0.5 inches) above the top of each test unit. Test compounds were sprayed at the rates indicated, and each test was replicated three times.
For evaluating control of potato leafhopper (Empoasca fabae (Harris)) through contact and/or systemic means, the test unit consisted of a small open container with a 5-6-day-old Soleil bean plant (primary leaves emerged) inside. White sand was added to the top of the soil, and one of the primary leaves was excised prior to application of the test compound.
Test compounds were formulated and sprayed at 250, 50, 10 and 2 ppm. After spraying of the formulated test compound, the test units were allowed to dry for 1 hour before they were post-infested with 5 potato leafhoppers (18-to-21-day-old adults). A black, screened cap was placed on the top of the test unit, and the test units were held for 6 days in a growth chamber at 20° C. and 70% relative humidity. Each test unit was then visually assessed for insect mortality.

[2] = system: cotton melon aphid (Aphis gossypii (Glover)); test: Test F: control of cotton melon aphid through contact and/or systemic means; conditions: 144 h
Experimental: as §1, §2
For evaluating control of cotton melon aphid (Aphis gossypii (Glover)) through contact and/or systemic means, the test unit consisted of a small open container with a 5-day-old okra plant inside. This was pre-infested with 30-40 insects on a piece of leaf according to the cut-leaf method, and the soil of the test unit was covered with a layer of sand.
Test compounds were formulated and sprayed at 250, 50 and 10 ppm. After spraying, the test units were maintained in a growth chamber for 6 days at 19° C. and 70% relative humidity. Each test unit was then visually assessed for insect mortality.

[3] = system: green peach aphid (Myzus persicae (Sulzer)); test: Test E: control of green peach aphid through contact and/or systemic means; conditions: in Raphanus sativus, 144 h
Experimental: as §1, §2
For evaluating control of green peach aphid (Myzus persicae (Sulzer)) through contact and/or systemic means, the test unit consisted of a small open container with a 12-15-day-old radish plant inside. This was pre-infested by placing on a leaf of the test plant 30-40 aphids on a piece of leaf excised from a culture plant (cut-leaf method). The aphids moved onto the test plant as the leaf piece desiccated. After pre-infestation, the soil of the test unit was covered with a layer of sand.
Test compounds were formulated and sprayed at 250, 50 and 10 ppm. After spraying of the formulated test compound, each test unit was allowed to dry for 1 hour and then a black, screened cap was placed on top. The test units were held for 6 days in a growth chamber at 19-21° C. and 50-70% relative humidity. Each test unit was then visually assessed for insect mortality.

[4] = system: sweetpotato whitefly (Bemisia tabaci (Gennadius)); test: Test G: control of sweetpotato whitefly through contact and/or systemic means; conditions: in Gossypium hirsutum, 312 h
Experimental: as §1, §2
For evaluating control of the sweetpotato whitefly (Bemisia tabaci (Gennadius)) through contact and/or systemic means, the test unit consisted of a small open container with a 12-14-day-old cotton plant inside. Prior to the spray application, both cotyledons were removed from the plant, leaving one true leaf for the assay. Adult whiteflies were allowed to lay eggs on the plant and then were removed from the test unit. Cotton plants infested with at least 15 eggs were submitted to the test for spraying.
Test compounds were formulated and sprayed at 250, 50, and 10 ppm. After spraying, the test units were allowed to dry for 1 hour. The cylinders were then removed, and the units were taken to a growth chamber and held for 13 days at 28° C. and 50-70% relative humidity. Each test unit was then visually assessed for insect mortality.

Structure (SMILES) | mortality at 50 ppm [1] | mortality at 250 ppm [1] | mortality at 250 ppm [2] | mortality at 50 ppm [3] | mortality at 250 ppm [3] | mortality at 50 ppm [2] | mortality at 2 ppm [1] | mortality at 10 ppm [1] | mortality at 50 ppm [4] | mortality at 2 ppm [4] | mortality at 10 ppm [4] | mortality at 10 ppm [2]
C[C@@H](NC(=O)c1ccc(C2=NOC(c3cc(Cl)c(F)c(Cl)c3)(C(F)(F)F)C2)c2ccccc12)C(N)=O (stereo partly drawn) [Compound 1, N-[(1R)-2-amino-1-methyl-2-oxoethyl]-4-[5-(3,5-dichloro-4-fluorophenyl)-4,5-dihydro-5-(trifluoromethyl)-3-isoxazolyl]-1-naphthalenecarboxamide] | ≥ 80% | ≥ 80% | ≥ 80% | – | – | – | – | – | – | – | – | –
COC(=O)CNC(=O)c1ccc(C2=NOC(c3cc(Cl)c(F)c(Cl)c3)(C(F)(F)F)C2)c2ccccc12 (stereo not drawn) [Compound 35, N-[[4-[5-(3,5-dichloro-4-fluorophenyl)-4,5-dihydro-5-(trifluoromethyl)-3-isoxazolyl]-1-naphthalenyl]carbonyl]glycine methyl ester] | – | ≥ 80% | ≥ 80% | ≥ 80% | ≥ 80% | ≥ 80% | – | – | – | – | – | –
O=C(NCc1ccccn1)c1ccc(C2=NOC(c3cc(Cl)c(F)c(Cl)c3)(C(F)(F)F)C2)c2ccccc12 (stereo not drawn) [Compound 15, 4-[5-(3,5-dichloro-4-fluorophenyl)-4,5-dihydro-5-(trifluoromethyl)-3-isoxazolyl]-N-(2-pyridinylmethyl)-1-naphthalenecarboxamide] | ≥ 80% | – | – | – | – | – | ≥ 80% | ≥ 80% | ≥ 70% | – | – | –
CON=CNC(=O)c1ccc(C2=NOC(c3cc(Cl)c(F)c(Cl)c3)(C(F)(F)F)C2)c2ccccc12 (stereo not drawn) [Compound 33, 4-[5-(3,5-dichloro-4-fluorophenyl)-4,5-dihydro-5-(trifluoromethyl)-3-isoxazolyl]-N-[(methoxyimino)methyl]-1-naphthalenecarboxamide] | ≥ 80% | – | – | ≥ 80% | – | ≥ 80% | ≥ 80% | ≥ 80% | ≥ 70% | ≥ 70% | ≥ 70% | ≥ 80%

Source: patent US11576382B2, “Naphthalene isoxazoline compounds for controlling invertebrate pests” (FMC Corporation, priority 2018, dated 2023)
